Values after ≈ are worked out from the molar mass of the structure shown. Active and inactive are the calls of the source. The rule behind the calls is not given here.
Key:
[1] = test system: Pseudomonas aeruginosa; assay: Antibacterial activity against Pseudomonas aeruginosa PAO1 infected in Caenorhabditis elegans N2 strain assessed as increase in Caenorhabditis elegans survival rate at 0.25 ug/ml up to 240 hrs relative to control; assay type: functional; conditions: dose 0.25 µg/ml; time hrs <=240
[2] = test system: Pseudomonas aeruginosa; assay: Antibacterial activity against Pseudomonas aeruginosa PAO1 planktonic cells assessed as reduction in bacterial growth after 18 hrs by resazurin dye based assay; conditions: PAO1, 18 h
[3] = test system: Pseudomonas aeruginosa; assay: Antibacterial activity against Pseudomonas aeruginosa PAO1 biofilm cells assessed as reduction in bacterial growth after 2 days by resazurin dye based assay; conditions: PAO1, 48 h
[4] = test system: Pseudomonas aeruginosa; assay: Ratio of MIC for antibacterial activity against Pseudomonas aeruginosa PAO1 biofilm cells to antibacterial activity against Pseudomonas aeruginosa PAO1 planktonic cells; assay type: functional
[5] = test system: Pseudomonas aeruginosa; assay: Antibacterial activity against Pseudomonas aeruginosa PAO1 infected in Caenorhabditis elegans N2 strain assessed as reduction in bacterial growth at 0.25 ug/ml after 120 hrs; assay type: functional, organism-based; conditions: dose 0.25 µg/ml
[6] = test system: Pseudomonas aeruginosa; assay: Antibacterial activity against Pseudomonas aeruginosa PAO1 infected in Caenorhabditis elegans N2 strain assessed as increase in Caenorhabditis elegans survival rate at 0.25 ug/ml after 120 hrs relative to control; assay type: functional; conditions: dose 0.25 µg/ml
[7] = Inhibition of quorum sensing in Chromobacterium violaceum CV026 mini-Tn5 mutant after 12 hrs in presence of C6-HSL
[8] = test system: Chromobacterium violaceum; assay: Antibacterial activity against Chromobacterium violaceum CV026 mini-Tn5 mutant; assay type: functional, organism-based
[9] = test system: Chromobacterium violaceum; assay: Inhibition of quorum sensing in Chromobacterium violaceum CV026 mini-Tn5 mutant at 2.5 to […] after 12 hrs in presence of C6-HSL
[10] = test system: Pseudomonas aeruginosa; assay: Antibacterial activity against Pseudomonas aeruginosa PAO1 infected in Caenorhabditis elegans N2 strain assessed as increase in Caenorhabditis elegans survival rate at 162.5 uM up to 240 hrs relative to control; assay type: functional; conditions: time hrs <=240
[11] = test system: Pseudomonas aeruginosa; assay: Antibacterial activity against Pseudomonas aeruginosa PAO1 biofilm cells assessed as reduction in microbial growth at 10 uM after 6 days in presence of MPEM; assay type: functional, organism-based; conditions: time 6.0 day
[12] = test system: Pseudomonas aeruginosa; assay: Inhibition of biofilm formation in Pseudomonas aeruginosa PAO1 at 162.5 uM after 20 hrs by crystal violet assay relative to control; assay type: functional
[13] = test system: Pseudomonas aeruginosa PAO1; assay: Inhibition of quorum sensing Rhl/PQS in Pseudomonas aeruginosa PAO1 assessed as reduction in pyocyanin level at 20 to 162.5 uM after 16 hrs; conditions: dose 20-162.5 µM
[14] = test system: Pseudomonas aeruginosa; assay: Synergistic antibacterial activity against Pseudomonas aeruginosa PAO1 biofilm cells assessed as fold change in MPEM MIC by checker board assay; assay type: functional
[15] = test system: Pseudomonas aeruginosa; assay: Antibacterial activity against Pseudomonas aeruginosa ATCC 27853 biofilm cells assessed as reduction in bacterial growth after 2 days by resazurin dye based assay; assay type: functional; conditions: ATCC 27853, 48 h, time 2 day
[16] = test system: Pseudomonas aeruginosa PAO1; assay: Inhibition of quorum sensing RhlAB in Pseudomonas aeruginosa PAO1 assessed as reduction in rhamnolipid level at 162.5 uM after 48 hrs by sulfuric acid-orcinol method relative to control
[17] = test system: Pseudomonas aeruginosa PAO1; assay: Inhibition of quorum sensing system in Pseudomonas aeruginosa PAO1 assessed as reduction in swarming motility after 24 hrs; conditions: dose 20-162.5 µM
[18] = test system: Pseudomonas aeruginosa PAO1; assay: Inhibition of quorum sensing Rhl/PQS in Pseudomonas aeruginosa PAO1 assessed as reduction in pyocyanin level at 162.5 uM after 16 hrs relative to control
[19] = test system: Pseudomonas aeruginosa PAO1; assay: Inhibition of quorum sensing las in Pseudomonas aeruginosa PAO1 assessed as reduction in protease level at 162.5 uM after 16 hrs
[20] = test system: Pseudomonas aeruginosa; assay: Synergistic antibacterial activity against Pseudomonas aeruginosa PAO1 biofilm cells assessed as FICI in presence of MPEM by checker board assay; assay type: functional
[21] = test system: Pseudomonas aeruginosa PAO1; assay: Inhibition of quorum sensing lasB in Pseudomonas aeruginosa PAO1 assessed as reduction in elastase level at 20 to 162.5 uM after 16 hrs by elastin Congo red method; conditions: dose 20-162.5 µM
[22] = test system: Pseudomonas aeruginosa PAO1; assay: Inhibition of quorum sensing lasB in Pseudomonas aeruginosa PAO1 assessed as reduction in elastase level at 162.5 uM after 16 hrs by elastin Congo red method relative to control
[23] = test system: Pseudomonas aeruginosa; assay: Inhibition of biofilm formation in Pseudomonas aeruginosa PAO1 at 10 to 325 uM after 20 hrs by crystal violet assay relative to control; assay type: functional; conditions: dose 10-325 µM
[24] = test system: Pseudomonas aeruginosa PAO1; assay: Inhibition of quorum sensing RhlAB in Pseudomonas aeruginosa PAO1 assessed as reduction in rhamnolipid level at 20 to 162.5 uM after 48 hrs by sulfuric acid-orcinol method; conditions: dose 20-162.5 µM
[25] = test system: Pseudomonas aeruginosa PAO1; assay: Inhibition of quorum sensing las in Pseudomonas aeruginosa PAO1 assessed as reduction in protease level at 20 to 162.5 uM after 16 hrs; conditions: dose 20-162.5 µM
[26] = test system: Pseudomonas aeruginosa; assay: Antibacterial activity against Pseudomonas aeruginosa PAO1 infected in Caenorhabditis elegans N2 strain assessed as reduction in bacterial growth at 162.5 uM after 120 hrs; assay type: functional, organism-based
[27] = test system: Pseudomonas aeruginosa; assay: Antibacterial activity against Pseudomonas aeruginosa PAO1 infected in Caenorhabditis elegans N2 strain assessed as increase in Caenorhabditis elegans survival rate at 162.5 uM after 120 hrs relative to control; assay type: functional
[28] = test system: Pseudomonas aeruginosa; assay: Antibacterial activity against Pseudomonas aeruginosa PAO1 biofilm cells assessed as reduction in microbial growth under sonication at 0.25 ug/ml after 6 days; assay type: functional, organism-based; conditions: dose 0.25 µg/ml, time 6.0 day
[29] = test system: Pseudomonas aeruginosa; assay: Antibacterial activity against Pseudomonas aeruginosa ATCC 27853 planktonic cells assessed as reduction in bacterial growth after 18 hrs by resazurin dye based assay; assay type: functional
[30] = test system: Pseudomonas aeruginosa; assay: Antibacterial activity against Pseudomonas aeruginosa PAO1 biofilm cells assessed as reduction in microbial growth at 10 uM after 6 days; assay type: functional, organism-based; conditions: time 6.0 day
[31] = test system: Pseudomonas aeruginosa; assay: Inhibition of biofilm formation in Pseudomonas aeruginosa PAO1after 20 hrs by crystal violet assay; assay type: functional, organism-based; conditions: PAO1, dose 10-325 µM

Question: Which Activity [1] does the source give for C[C@@H](O)[C@H]1C(=O)N2C(C(=O)O)=C(S[C@@H]3CN[C@H](C(=O)N(C)C)C3)[C@H](C)[C@H]12 [MEROPENEM] here?
Answer: 15.67%

Question: What about the MIC [2] of the same compound?
Answer: 0.25 µg/mL (≈ 0.652 µM)

Question: And the MIC [3]?
Answer: 8 µg/mL (≈ 20.9 µM)

Question: What about the Ratio [4] of the same compound?
Answer: 32

Question: And the Activity [5]?
Answer: Active

Question: What about the Activity [6] of the same compound?
Answer: 13.33%

Question: Which IC50 [7] does the source give for CCCCCCCCCC(=O)N[C@H]1CCOC1=O here?
Answer: 0.13 µM

Question: For O=C(CCCCCCOc1ccc([N+](=O)[O-])cc1)NN1CCOC1=O, which Activity [8] is on record?
Answer: inactive

Question: For O=C(CCCCOc1cccc(F)c1)NN1CCOC1=O, which IC50 [7] is on record?
Answer: 63.6 µM

Question: What about the inhibition [9] of the same compound?
Answer: Active

Question: What about the Activity [8] of the same compound?
Answer: inactive

Question: Which IC50 [7] does the source give for O=C(CCCOc1ccc(F)cc1F)NN1CCOC1=O here?
Answer: 19.6 µM

Question: And the inhibition [9]?
Answer: Active

Question: What about the Activity [8] of the same compound?
Answer: inactive

Question: With O=C(CCCOc1ccc(F)cc1)NN1CCOC1=O as the compound, how does the IC50 [7] read?
Answer: 11 µM

Question: What about the inhibition [9] of the same compound?
Answer: Active

Question: And the Activity [8]?
Answer: inactive

Question: For O=C(O)c1cn(C2CC2)c2cc(N3CCNCC3)c(F)cc2c1=O [CIPROFLOXACIN], which MIC [2] is on record?
Answer: 0.08 µg/mL (≈ 0.241 µM)

Question: What does the source list for O=C(CCCOc1ccc(Br)cc1)NN1CCOC1=O?
Answer: Activity [10]: 18.33%; Activity [11]: Active; inhibition at 162.5 µM [12]: 40.4%; inhibition [13]: Active; IC50 [7]: 3.69 µM; fold change (FC) [14]: 8; inhibition [9]: Active; MIC [15]: > 1110 µg/mL; inhibition [16]: 57.9%; MIC [2]: > 1110 µg/mL; inhibition [17]: Dose-dependent effect; MIC [3]: > 1110 µg/mL; inhibition [18]: 22.5%; inhibition [19]: 14.9%; fractional inhibitory concentration index (FICI) [20]: <0.5; inhibition [21]: Active; inhibition [22]: 16.2%; Activity [8]: inactive; inhibition (INH) [23]: 17.67%; inhibition [24]: Active; inhibition [25]: Active; Activity [26]: Active; Activity [27]: 16%; Activity [28]: Active; MIC [29]: > 1110 µg/mL; Activity [30]: inactive; inhibition [31]: Dose-dependent effect

Question: Which results are given for O=C(CCCSc1ccc(Cl)cc1)NN1CCOC1=O?
Answer: IC50 [7]: 6.84 µM; inhibition [9]: Active; Activity [8]: inactive

Question: For O=C(CCCCOc1ccc(F)cc1)NN1CCOC1=O, which IC50 [7] is on record?
Answer: 23.1 µM

Question: And the inhibition [9]?
Answer: Active

Question: What about the Activity [8] of the same compound?
Answer: inactive

Question: Which IC50 [7] does the source give for O=C(CCCOc1cc(F)cc(F)c1)NN1CCOC1=O here?
Answer: 61.6 µM

Question: And the inhibition [9]?
Answer: Active

Question: And the Activity [8]?
Answer: inactive

Question: With NC[C@H]1O[C@H](O[C@H]2[C@H](O)[C@@H](O[C@H]3O[C@H](CO)[C@@H](O)[C@H](N)[C@H]3O)[C@H](N)C[C@@H]2N)[C@H](N)C[C@@H]1O [TOBRAMYCIN] as the compound, how does the MIC [2] read?
Answer: 2 µg/mL (≈ 4.28 µM)

Question: And the MIC [3]?
Answer: 8 µg/mL (≈ 17.1 µM)

Question: Which IC50 [7] does the source give for O=C(CCCCCOc1ccc(Cl)cc1)NN1CCOC1=O here?
Answer: 32.8 µM

Question: And the inhibition [9]?
Answer: Active

Question: What about the Activity [8] of the same compound?
Answer: inactive

Question: What does the source list for CC(C)(O/N=C(\C(=O)N[C@@H]1C(=O)N2C(C(=O)[O-])=C(C[n+]3ccccc3)CS[C@H]12)c1csc(N)n1)C(=O)O [CEFTAZIDIME]?
Answer: MIC [2]: 1 µg/mL (≈ 1.83 µM); MIC [3]: 2 µg/mL (≈ 3.66 µM)

Question: Which IC50 [7] does the source give for O=C(CCCOc1ccccc1F)NN1CCOC1=O here?
Answer: 40.9 µM

Question: And the inhibition [9]?
Answer: Active

Question: And the Activity [8]?
Answer: inactive

Question: Which results are given for O=C(CCCOc1ccc([N+](=O)[O-])cc1)NN1CCOC1=O?
Answer: IC50 [7]: 21.3 µM; inhibition [9]: Active; Activity [8]: inactive

Question: For O=C(CCCCCCSc1ccc(Cl)cc1)NN1CCOC1=O, which Activity [8] is on record?
Answer: inactive

Question: With O=C(CCCCCCOc1ccc(Br)cc1Br)NN1CCOC1=O as the compound, how does the Activity [8] read?
Answer: inactive

Question: What does the source list for O=C(CCCOc1cccc(F)c1)NN1CCOC1=O?
Answer: IC50 [7]: 15.5 µM; inhibition [9]: Active; Activity [8]: inactive

Question: With O=C(CCCCOc1ccc(Cl)cc1)NN1CCOC1=O as the compound, how does the IC50 [7] read?
Answer: 39.5 µM

Question: And the inhibition [9]?
Answer: Active

Question: What about the Activity [8] of the same compound?
Answer: inactive

Question: With O=C(CCCCCCOc1ccc(Br)cc1)NN1CCOC1=O as the compound, how does the Activity [8] read?
Answer: inactive

Question: For NCC[C@H](O)C(=O)N[C@@H]1C[C@H](N)[C@@H](O[C@H]2O[C@H](CN)[C@@H](O)[C@H](O)[C@H]2O)[C@H](O)[C@H]1O[C@H]1O[C@H](CO)[C@@H](O)[C@H](N)[C@H]1O [AMIKACIN], which MIC [2] is on record?
Answer: 4 µg/mL (≈ 6.83 µM)

Question: What about the MIC [3] of the same compound?
Answer: 16 µg/mL (≈ 27.3 µM)

Question: With O=C(CCCOc1cccc(Cl)c1)NN1CCOC1=O as the compound, how does the IC50 [7] read?
Answer: 38.1 µM

Question: What about the inhibition [9] of the same compound?
Answer: Active

Question: And the Activity [8]?
Answer: inactive

Question: For O=C(CCCCCCOc1ccc(Cl)cc1)NN1CCOC1=O, which Activity [8] is on record?
Answer: inactive
